Test results reported in PMC3404106, “Pharmacology of DB844, an Orally Active aza Analogue of Pafuramidine, in a Monkey Model of Second Stage Human African Trypanosomiasis” (PLoS Neglected Tropical Diseases, 2012).
“And” between values parts separate entries of the source, which are not always exact repeats. Equal values may be shown once. “Also recorded” adds a separate entry of the source.

Columns and labels:
[1] = tested on: Trypanosoma brucei rhodesiense KETRI 2537; experiment: Efficacy in vervet monkey model of second stage HAT; format: in vivo; conditions: for TOC test at 300 days post last dose / EoT test at 1 day post last dose (trypanosomes in blood/CSF) / EoT test at 4 days post last dose (trypanosomes in blood/CSF): individual monkeys; for EoT test at 1 day post last dose (trypanosomes in blood/CSF) / EoT test at 4 days post last dose (trypanosomes in blood/CSF): Neg/Pos
Source text: A pleomorphic isolate, T.b rhodesiense KETRI 2537, a derivative of EATRO 1989 that was isolated from a patient in Uganda by direct inoculation of blood and lymph node aspirate into a monkey and later cryopreserved at KARI- TRC [18], was used. This isolate is the basis of the KETRI vervet monkey and mouse models and has been widely used for drug efficacy trials, [20].
Sixteen vervet monkeys in two groups of eight monkeys each (four males and four females) were used. After a 14-day baseline weight, clinical and haematology data collection period, the sixteen monkeys were infected by intravenous injection of approximately 10^4 trypanosomes diluted from infected blood of immuno-suppressed donor Swiss white mice. Parasitaemia post infection was determined by examination of wet film of ear prick blood and/or examination of buffy coat after centrifugation of blood collected in a heparinised capillary tube as described previously. Parasitaemia in wet film was estimated using the rapid matching method of Herbert and Lumsden. In addition, monkeys were confirmed to be in second stage disease by detection of trypanosomes in the CSF with or without elevated white cell counts above 5 cells/µl, [20], [21], [23]. At 28 days post infection (DPI), the animals were treated with DB844 via oral gavage at 5 mg/kg qd×10 days (group I, n = 8) or 6 mg/kg qd×14 days (group II, n = 8), utilising a dose volume of 1 ml/kg. The monkeys were examined for parasitaemia every day during drug treatment and then twice weekly until ≥300 days post dosing, at which point monkeys were considered cured if they remained clinically normal and parasite-free as determined below.

[2] = Metabolism of DB844 in vervet monkey liver microsomes; format: in vitro ADME; conditions: 10 µM DB844, 0.2 mg/ml male vervet monkey liver microsomes
Experimental: The metabolism of DB844 was investigated using liver microsomes, prepared from a male vervet monkey by XenoTech, LLC (Lenexa, KS), in the presence of NADPH as described previously with modifications. Briefly, incubation mixtures (1 ml at pH7.4, in triplicate) contained 10 µM DB844 and 0.2 mg/ml monkey liver microsomes. After a 5-min equilibration period at 37°C, reactions were initiated with the addition of NADPH. Aliquots (50 µl) of the reaction mixtures were removed at 0, 5, 10, 15, 30, 60, 90, and 120 min and mixed with 25 µl of ice-cold acetonitrile. The mixtures were centrifuged (10,000×g for 5 min at 4°C) and the supernatants were analyzed by HPLC/UV using the same method as previously described for DB289 [22]. […] DB844 and metabolites were quantified using a single-concentration calibration curve generated using synthetic standards.

[3] = Toxicity study of 10-day oral DB844 regimens in uninfected monkeys
[4] = tested on: 1st stage experimental murine HAT infections; parameters: method as in PMID 19620327; conditions: DB844 at 25 mg/kg; cited from earlier work
[5] = Safety monitoring (clinical, haematology, clinical chemistry) in infected DB844-treated monkeys; format: in vivo, vervet monkey; conditions: for RBC / Haematocrit / Hemoglobin / Mean corpuscular haemoglobin / Mean corpuscular volume / Platelet counts / WBC counts: infected monkeys
Experimental: Haematology samples (1 ml) were analysed using an AC^3diffT Coulter Counter (Miami, Florida, USA). Clinical chemistries were determined using a Humalyzer analyser system. Finally, plasma and CSF were analyzed for drug and metabolite concentrations using an HPLC-tandem Mass Spectrometry (HPLC-MS/MS) procedure as described below.

GVR35 CNS model of HAT = tested on: GVR35 CNS model of HAT; parameters: method as in PMID 19620327; conditions: cited from earlier work
[6] = group I: DB844 5 mg/kg×10 days per os, 28–37 DPI, 5 mg/kg
[7] = group II: DB844 6 mg/kg×14 days per os, 28–41 DPI, 6 mg/kg
[8] = relapsed monkeys of both groups
[9] = uninfected monkeys, DB844 5 mg/kg×10 days orally, monkeys 572F, 582M
[10] = uninfected monkeys, DB844 10 mg/kg×10 days orally, monkeys 541F, 578M, 10 mg/kg
[11] = uninfected monkeys, DB844 10 mg/kg×10 days orally, monkeys 541F, 578M, parenthesis = days post first dose when observed, 10 mg/kg
[12] = vervet 578, 10 mg/kg×10 days orally, uninfected
[13] = infected monkeys after oral DB844 treatment, days post last dose
[14] = DB844 6 mg/kg×14 days, 41 DPI (0 days post last dose)
[15] = DB844 6 mg/kg×14 days, 48 DPI (7 days post last dose)
[16] = DB844 6 mg/kg×14 days, 69 DPI (28 days post last dose)
[17] = DB844 6 mg/kg×14 days, 104 DPI (63 days post last dose)

CONC(=N)c1ccc(-c2ccc(-c3ccc(C(=N)NOC)cn3)o2)cc1 [DB844, N-methoxy-6-{5-[4-(N-methoxyamidino)phenyl]-furan-2-yl}-nicotinamidine]
EoT provisional cure rate at 4 days post dosing ([1]; both groups (5 mg/kg×10 days and 6 mg/kg×14 days)): 100% | overall cure rate ([1]; both study groups): approximately 40% | trypanosomes in the blood or cerebrospinal fluid at end of treatment evaluation ([1]; four days post the last drug dose, any monkey): not detected | TOC test at 300 days post last dose [1, 6]: Cured; also recorded: Relapsed | EoT test at 1 day post last dose (trypanosomes in blood/CSF) [1, 6]: Neg and Pos | EoT test at 4 days post last dose (trypanosomes in blood/CSF) [1, 6]: neg and Neg | TOC test at 300 days post last dose [1, 7]: Cured; also recorded: Relapsed | EoT test at 4 days post last dose (trypanosomes in blood/CSF) ([1]; group II: DB844 6 mg/kg×14 days per os, 28–41 DPI): Neg | EoT test at 1 day post last dose (trypanosomes in blood/CSF) [1, 7]: Neg and Pos | cure rate in the vervet monkey model of 2nd stage HAT ([1]; oral DB844, best of the two regimens): up to 43% | median (range) time to trypanosome recrudescence in CSF [1, 8]: 133 (35–322, n = 9) days and 133 days | median (range) time to trypanosome recrudescence in blood [1, 8]: 261 (239–322, n = 3) days and 261 days | metabolites formed over a 120 min incubation period [2]: at least seven | half-life at 10 µM ([2]; pH 7.4, NADPH, 37°C, pH7.4, read-out: microsomal half-life): ~14 min | monkeys in which no adverse clinical signs of toxicity were elicited ([3]; uninfected monkeys, 5 mg/kg/day orally for 10 days): 2/2 | monkeys with overt toxicity ([3]; uninfected monkeys, 10 mg/kg/day orally for 10 days): 1/2 | monkeys with overt toxicity ([3]; uninfected monkeys, 20 mg/kg/day orally (8 doses given)): 2/2 | weight loss (maximum among adverse clinical events) ([3]; uninfected monkeys, 5, 10 or 20 mg/kg/day orally): up to 10.5% | Adverse clinical events: GIT changes [3, 9]: None | Adverse clinical events: Jaundice [3, 9]: None | Adverse clinical events: Reduced feed intake [3, 9]: None | Daily doses completed [3, 9]: 10/10 | Euthanised due to toxicity [3, 9]: No | % weight loss ([3]; uninfected monkeys, DB844 5 mg/kg×10 days orally, monkeys 572F, 582M, 5 mg/kg): 1.8% and 4.9% | Daily doses completed ([3]; uninfected monkeys, DB844 10 mg/kg×10 days orally, monkeys 541F, 578M): 10/10 | % weight loss [3, 10]: 4.6% and 10.5% | Adverse clinical events: Jaundice [3, 10]: None and yes | Adverse clinical events: GIT changes [3, 11]: None and Yes (16) | Adverse clinical events: Reduced feed intake [3, 11]: Yes (11); also recorded: Yes (14) | Euthanised due to toxicity ([3]; uninfected monkeys, DB844 10 mg/kg×10 days orally, monkeys 541F, 578M, parenthesis = days post first dose, 10 mg/kg): No and Yes (16) | Adverse clinical events: Jaundice ([3]; uninfected monkeys, DB844 20 mg/kg×10 days orally, monkeys 543F, 606M): yes | % weight loss ([3]; uninfected monkeys, DB844 20 mg/kg×10 days orally, monkeys 543F, 606M, 20 mg/kg): 9.1% and 6.5% | Daily doses completed ([3]; uninfected monkeys, DB844 20 mg/kg×10 days orally, monkeys 543F, 606M, dosing withdrawn on overt toxicity): 8/10 | Adverse clinical events: GIT changes ([3]; uninfected monkeys, DB844 20 mg/kg×10 days orally, monkeys 543F, 606M, parenthesis = days post first dose when observed): Yes (8) | Adverse clinical events: Reduced feed intake ([3]; uninfected monkeys, DB844 20 mg/kg×10 days orally, monkeys 543F, 606M, parenthesis = days post first dose when observed, 20 mg/kg): Yes (8); also recorded: Yes (9) | Euthanised due to toxicity ([3]; uninfected monkeys, DB844 20 mg/kg×10 days orally, monkeys 543F, 606M, parenthesis = days post first dose, 20 mg/kg): Yes (9); also recorded: Yes (10) | monkeys in which the dose was well tolerated ([3]; uninfected monkeys, middle dose 10 mg/kg×10 days): 1/2 | mean corpuscular volume (MCV) after rise from 76.6 [3, 12]: 86.9 fL | red cell distribution width (RDW) after rise from 15 [3, 12]: 18.4 | rise in mean corpuscular volume (MCV) [3, 12]: 13% | rise in red cell distribution width (RDW) [3, 12]: 23% | cure of 1st stage experimental murine HAT infection [4]: curative | mean plasma ALT at its peak ([5]; group II, 6 mg/kg, after 7 daily drug doses (34 DPI), baseline 4.5±0.9 IU): 13.6±3.8 IU | alkaline phosphatase change during and after drug administration ([5]; group II, 6 mg/kg×14 days): no significant changes | plasma creatinine change from baseline ([5]; group II, 6 mg/kg×14 days): not significant | total bilirubin and direct bilirubin changes ([5]; group II, 6 mg/kg×14 days): none of the changes were statistically significant | increase of mean plasma AST above baseline ([5]; group II, 6 mg/kg×14 days, 24 hours post dosing): 3.3 times | mean (± SE) plasma AST ([5]; group II, 6 mg/kg×14 days, 24 hours post dosing, baseline 37.0±4.8 IU): 121±21.6 IU | blood urea nitrogen (BUN) as indicator of renal function ([5]; group II, 6 mg/kg×14 days, from 48 h post dosing (43 DPI)): mild and reversible decrease in kidney function | increases in plasma transaminases (AST and ALT) ([5]; group II, efficacy study): 2–3 fold | time to reversal of transaminase elevations after the last drug dose ([5]; group II, efficacy study): 4 to 7 days | time to re-establishment of baseline RBC associated parameters [5, 13]: 28 to 63 days | time to re-establishment of baseline platelet parameters [5, 13]: within seven | drug related haematology changes ([5]; infected monkeys treated with oral DB844 (5 and 6 mg/kg)): no drug related haematology changes; also recorded: No DB844-related haematological aberrations | RBC ([5]; DB844 6 mg/kg×14 days (28–41 DPI), 41 DPI (0 days post last dose)): 4.8±0.3, p<0.0001 ×10^6/µl | Haematocrit [5, 14]: 31.6±1.6, p<0.0001% | Hemoglobin [5, 14]: 11.2±0.7, p<0.0001 g/dl | Mean corpuscular haemoglobin [5, 14]: 23.0±0.3 p<0.008 g/dl | Mean corpuscular volume [5, 14]: 65.3±0.9, p = 0.0001 fl | Platelet counts [5, 14]: 406.5±22.5 p = 0.05 ×10^3/µl | WBC counts [5, 14]: 7.1±1.0, p = 0.12 ×10^3/µl | Haematocrit [5, 15]: 31.8±1.6, p<0.0001% | Hemoglobin [5, 15]: 11.5±0.6, p<0.0001 g/dl | Mean corpuscular haemoglobin [5, 15]: 23.3±0.4 p = 0.07 g/dl | Mean corpuscular volume [5, 15]: 64.8±0.9, p = 0.0001 fl | Platelet counts [5, 15]: 390.7±32.4, p = 0.11 ×10^3/µl | RBC [5, 15]: 4.9±0.2, p<0.004 ×10^6/µl | WBC counts [5, 15]: 5.6±1.2, p = 0.9 ×10^3/µl | Haematocrit [5, 16]: 43.8±1.6, p = 0.91% | Hemoglobin [5, 16]: 12.8±0.5, p = 0.15 g/dl | Mean corpuscular haemoglobin [5, 16]: 23.4±0.6, p = 0.13 g/dl | Mean corpuscular volume [5, 16]: 79.8±1.4, p = 0.11 fl | Platelet counts [5, 16]: 332.2±11.9, p = 0.78 ×10^3/µl | RBC [5, 16]: 5.5±0.2, p = 0.55 ×10^6/µl | WBC counts [5, 16]: 5.9±0.8, p = 0.8 ×10^3/µl | Haematocrit [5, 17]: 46.7±2.7, p = 0.91% | Hemoglobin [5, 17]: 14.1±0.8, p = 0.11 g/dl | Mean corpuscular haemoglobin [5, 17]: 23.3±0.5 p = 0.21 g/dl | Mean corpuscular volume [5, 17]: 77.0±1.5, p = 0.21 fl | Platelet counts [5, 17]: 294.3±17.4 p = 0.55 ×10^3/µl | RBC [5, 17]: 6.1±0.3 p = 0.02 ×10^6/µl | WBC counts [5, 17]: 5.1±0.1, p = 0.4 ×10^3/µl | cure of 2nd stage experimental murine HAT infection (GVR35 CNS model of HAT; DB844 at 100 mg/kg): curative | animals cured (GVR35 CNS model of HAT; mice, oral DB844 (100 mg/kg×5 days)): 5/5
